No end group written: not given here.
Key:
Format in all cases: cell-based
[1] = tested on: neonatal rat ventricular cardiomyocyte; experiment: Hypoxia-reoxygenation (simulated I-R) injury in neonatal rat cardiomyocytes, LDH and cTnI release; settings: 1 μM
Protocol: Isolation of primary neonatal rat ventricular cardiomyocyte: All materials used for cardiomyocyte isolation were of tissue culture grade. Cardiomyocyte isolation was performed by serial enzymatic digestions, as previously described (Irvine, J C et al, AJP, 2013). Cardiomyocyte were suspended in sterile DMEM, supplemented with 100 U/mL penicillin, 100 μg/mL streptomycin, and 10% FCS. The myocyte-rich cell suspension was preplated twice (45 min at 37° C.) to reduce fibroblast contamination. Cardiomycte was then plated onto 12-well plates at 0.5×10^6 for lactate dehydrogenase (LDH) assay in the presence of 1% 5-bromo-2′-deoxyuridine (BrdU, to limit proliferation of any remaining fibroblasts).
Simulated ischaemic-reperfusion in neonatal rat cardiomyocytes: The medium for cardiomyocytes was changed to serum-free low glucose DMEM after at least 48 h after isolation. […] Agonists were dissolved in DMEM or Krebs' buffer and were present for the full duration of hypoxia and reoxygenation. At the end of 48 h reoxygenation, culture supernatant aliquots was collected on ice and stored at −80° C. for assessment of cardiomyocyte injury. Samples were thawed on ice, and cell injury assessment determined via the level of LDH released into the supernatant, using the Cyto-Tox-One™ Homogeneous Membrane Integrity Assay as per manufacture's instruction (Promega Inc, Dane Country, Wis., USA). To confirm the extent of cardiomyocyte injury, levels of cTn in the supernatant were also evaluated, using a commercially available high-sensitivity rat cTnI ELISA kit (Life Diagnostic Inc, West Chester, Pa., USA) as per manufacturer's instructions.
(§1) Isolation and culture of primary rat cardiomyocytes and mouse cardiac fibroblasts: All materials used for cell isolation were of tissue culture grade. Isolation of primary neonatal rat cardiac cardiomyocytes (NRCM) and adult mouse cardiac fibroblasts (AMCF) was performed by serial enzymatic digestion, as previously described (Irvine et al 2012 & Irvine et al. 3) NRCM were plated onto either 12-well tissue culture plates (for simulated ischemia-reperfusion, via hypoxia-reoxygenation, H-R) or 60 mm tissue culture dishes (for gene expression) at a density of 1.3×10^5 cells/cm^2, in the presence of 1% 5-bromo-2′-deoxyuridine. AMCF (passage #3) were seeded onto 60 mm tissue culture dishes at 9.5×10^4 cells/cm^2 and allowed to grow to 80% confluence prior to study. Following 48 h in serum-free DMEM, NRCM in 12-well tissue plates were subjected to simulated ischemia, induced by replacement of culture media with sterile-filtered Kreb's buffer (118 mM NaCl, 4.8 mM KCl, 1.2 mM KH2PO4, 1.2 mM MgSO4, 25 mM NaHCO3, 50 mM EDTA, 11.0 mM glucose, 1.75 mM CaCl2) prior to incubation for 6 h at 37° C. under hypoxia (95% N2-5% CO2, using a hypoxia chamber, QNA International, Melbourne, Australia). At the end of hypoxia, Kreb's buffer was replaced with fresh, sterile-filtered Kreb's buffer, in the presence or absence of FPR agonists Cmpd17b, Cmpd43 (both 1 μM or vehicle, and NRCM were subjected to 48 h reoxygenation at 37° C. At the end of 48 h reoxygenation, NRCM supernatant was collected for assessment of cardiomyocyte injury. Cardiomyocyte release of cTnI was determined using a commercially available, high-sensitivity rat cTnI ELISA kit (Life Diagnostic Inc.) as per the manufacturer's instructions. Separate NRVM on 60 mm dishes were incubated for 48 h at 37° C. in serum-free DMEM, in the presence or absence of FPR agonists Cmpd17b, Cmpd43 (both 1 μM) or vehicle. At the end of 48 h, RNA was extracted and real-time PCR performed (as described previously (Huynh et al. 2012)), to determine the relative gene expression of rat Fprs (rFpr1, rFpr2 and rFpr3, expressed as the threshold cycle number Ct subtracted from the maximum cycle number utilized, 40).
Cardiomyocytes injury responses in vitro: Neonatal rat cardiomyocytes and adult mouse cardiofibroblasts were isolated and cultured as described (online Supplement). […]

hFPR1 = target: T1, hFPR1 (Homo sapiens, UniProt P21462); experiment: Quantification of biased agonism (operational model) at hFPR1 in CHO cells; settings: for Bias (away from Ca2+i), hFPR1-FlpInCHO cells in vitro: Table 9
T1 construct: expressed in transfected cells
T1 sequence (P21462 1-350): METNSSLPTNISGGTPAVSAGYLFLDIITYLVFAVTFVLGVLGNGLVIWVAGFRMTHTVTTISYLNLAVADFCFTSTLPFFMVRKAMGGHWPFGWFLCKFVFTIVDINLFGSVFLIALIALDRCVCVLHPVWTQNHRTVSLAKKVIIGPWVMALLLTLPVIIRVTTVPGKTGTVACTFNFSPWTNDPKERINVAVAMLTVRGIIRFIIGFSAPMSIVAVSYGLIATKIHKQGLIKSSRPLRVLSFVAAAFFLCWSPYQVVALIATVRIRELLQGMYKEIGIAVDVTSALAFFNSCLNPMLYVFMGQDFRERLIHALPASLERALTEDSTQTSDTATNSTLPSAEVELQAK
Description: To quantify biased agonism mediated by each agonist across the various pathways ([Ca^2+], mobilization, pERK1/2, Akt1/2/3 and inhibition of cAMP accumulation), agonist concentration-response curves were refitted using the operation model normalized to the transduction ratio of a reference agonist (in this case, BIDI-002) as described previously (Stewart G D et al., 2009). Under these conditions, if the test agonist and the reference agonist activate the two pathways through a common receptor conformation, the log [bias factor] should be 0.0 (or bias factor different from 1.0), irrespective of differences in response amplification between pathways. In contrast, significant deviation of log [bias factor] from 0.0 (or bias factor different from 1.0) indicates the involvement of distinct conformations for the different agonists. All affinities, potencies, efficacies, and cooperativity parameters were estimated as logarithms (Christopoulos, 1998). Results are expressed as means±S.E. unless otherwise stated. Statistical analyses were by Student's t test, or one-way ANOVA followed by Dunnett's Comparison or Tukey's post-hoc test, as appropriate. Values of p<0.05 were considered statistically significant.
A “transduction ratio” is firstly derived for each response (τ/KA, where τ represents efficacy, and KA affinity, of the agonist for each GPCR conformational state), extracted from each concentration-response curve. “Bias factors” (ΔΔ(τ/KA)) were then calculated by normalizing the transduction ratio to a reference ligand (in this case, Cmpd43) and reference pathway, which here was Akt1/2/3(Thr308) phosphorylation. Lastly, bias factors were plotted on a ‘web of bias’ to visualize the potential for biased agonism. […] Under these conditions, if the test agonist and the reference agonist activate the two pathways through a common receptor conformation, the log [bias factor] should be 0.0 (i.e. the bias factor 1.0), irrespective of differences in response amplification between pathways. In contrast, significant deviation of log [bias factor] away from 0.0 (i.e. where the bias factor is different to 1.0) indicates the involvement of distinct conformations for the different agonists. All affinities, potencies, efficacies, and cooperativity parameters were estimated as logarithms (Kenakin et al. 2012).
Five signaling pathways were examined, namely pERK1/2-phosphorylation, Akt1/2/3(Ser473)-phosphorylation, Akt1(Thr308)-phosphorylation, increases in Ca2+i and inhibition of forskolin-induced cAMP accumulation. An operational model of agonism was fitted to each concentration-response curve to estimate a transduction ratio (τ/KA) for each agonist, at each pathway assessed, as described (FIG. 21B) (Kenakin et al. 2012). Transduction ratios were normalized to a reference agonist (Cmpd43) and a reference pathway (Akt1/2/3(Thr308)-phosphorylation), generating bias factors and therefore allowing quantitative cross-pathway comparison for each agonist.

[2] = tested on: adult mouse cardiac fibroblasts; experiment: TGF-β stimulation of adult mouse cardiac fibroblasts, CTGF and IL-1β expression; settings: 10 μM, 24 h TGF-β
Protocol: as §1, with “Following 48 h in serum-free DMEM, NRCM in 12-well tissue plates were subjected to simulated ischemia, induced by replacement of culture media with sterile-filtered Kreb's buffer (118 mM NaCl, 4.8 mM KCl, 1.2 mM KH2PO4, 1.2 mM MgSO4, 25 mM NaHCO3, 50 mM EDTA, 11.0 mM glucose, 1.75 mM CaCl2) prior to incubation for 6 h at 37° C. under hypoxia (95% N2-5% CO2, using a hypoxia chamber, QNA International, Melbourne, Australia).” left out, “40). […]” for “40).”
Cardiomyocytes injury responses in vitro: Neonatal rat cardiomyocytes and adult mouse cardiofibroblasts were isolated and cultured as described (online Supplement). […] Cardiomyocyte injury was assessed by measurement of cardiac cTnI in cardiomyocyte supernatant. […]

[3] = present only during reoxygenation
[4] = present for the full duration of 6 h hypoxia and 48 h reoxygenation

Row | Compound | Cardiomyocyte cTnI release after hypoxia-reoxygenation [1, 3] | Bias (away from Ca2+i), hFPR1-FlpInCHO cells in vitro (hFPR1) | Preference to Akt phosphorylation, ERK phosphorylation and cAMP accumulation (degree of bias) (hFPR1; operational model, relative to BIDI-002, hFPR receptors) | Pro-fibrotic CTGF response to TGF-β in cardiofibroblasts [2] | TGF-β-induced pro-inflammatory IL-1β response in cardiofibroblasts [2] | Cardiomyocyte cTnI release after hypoxia-reoxygenation ([1]; present only during reoxygenation, listed as Cmpd17b) | Cardiomyocyte LDH release after hypoxia-reoxygenation [1, 4] | Cardiomyocyte cTnI release after hypoxia-reoxygenation [1, 4] | Cardiomyocyte LDH release after hypoxia-reoxygenation [1, 3] | Biased agonism / bias away from Ca2+i (hFPR1; in words)
1 | CC(C)C1C(NC(=O)Nc2ccc(Cl)cc2)C(=O)N(c2ccccc2)N1C (centres unmarked) [BIDI-002] | significantly reduced | No | approximately 20 fold | remained significant | tended to persist | – | – | – | – | –
2 | COc1cccc(Cc2cc(C)nn(C(C)C(=O)Nc3ccc(Br)cc3)c2=O)c1 (centres unmarked) [BIDI-001, N-(4-bromophenyl)-2-[5-(3-methoxybenzyl)-3-methyl-6-oxo-6H-pyridazin-1-yl]-propionamide] | significantly reduced | – | – | – | not | rescued | – | – | – | –
3 | Ac2-26: Annexin-A1 N-terminal peptide, peptide ANX-A1 mimetic (Ac-AMVSEFLKQAWFIENEEQEYVQTVK; UniProt P04083 2-26, looked up, fragment) | significantly attenuated | – | – | – | – | – | significantly reduced | significantly reduced | non-significant trend | –
4 | Cc1cc(Cc2cccnc2)c(=O)n(CC(=O)Nc2ccc(Cl)cc2)n1 [MIPS-0010396] | – | Strong | – | – | – | – | – | – | – | displays Ca2+i bias
